In patent publication US11260118B2, “Immunogenic peptide composition” (Cancer Research Malaysia, priority 2017, dated 2022):
Where no end group is shown, it is not given here.

How the values were obtained:
[1] = tested on: mouse macrophage cell line RAW264.7
[2] = tested on: target cells 195M (MAGED4B) and C666.1F (FJX1)
Procedure: The cytotoxic ELISPOT assay was used to study the response of peptide-pulsed CTLs derived from the patients to target cell lines overexpressing the target antigens. CTLs were co-cultured with target cells, where this culture was re-suspended in complete culture media supplemented with IL-7 and interleukin 2 (IL-2) proteins and applied to IFNγ and granzyme B ELISPOT plates. The cell suspension was further incubated to allow the interaction between CTLs and target cell line before determining the potential killing ability of CTLs against FJX1 and MAGED4b expressing target cells.
Dendritic cells from patients were isolated and subsequently used as antigen presenting cells. Briefly, PBMCs were re-suspended in macrophage-serum free media (M-SFM) (Gibco, Thermo Fisher, MA, USA), seeded in a 6-well plate and incubated for 1 hour at 37° C. After incubation, non-adherent cells from PBMCs were collected, rinsed in HBSS and then re-suspended in complete culture media contained 10 ng/ml IL-7. Approximately 2-5×10^5 cells per well were seeded into round bottom 96-well plates. Cells were then incubated for 2-5 days at 37° C. for T cell expansion with the addition of 50 μg/ml of peptides. The adherent cells resulting from the incubation, were cultured at 37° C. for 2-5 days in M-SFM in the presence of 100 ng/ml GM-CSF and 25 ng/ml IL-4 to induce differentiation of dendritic cells (DCs). […]

HNSCC = details: cited from earlier work
[3] = tested on: recurrent or metastatic HNSCC; details: human, in vivo; cited from earlier work

Substance: RLSLLLVIL [M6]
- degree of inflammation / iNOS accumulation [1]: low

Substance: SLYNTYATL [HIV peptide]
- IFNγ and granzyme B secretion / cytotoxic T cell response after in vitro peptide stimulation [2]: induces increased levels of IFNγ and Granzyme B secretion

Substance: WLLALGSLLAL [F1, WLLALGSLLAL]
- degree of inflammation / iNOS accumulation [1]: low
- production of nitrite, fold lower than LPS positive control [1]: 10 fold

Substance: nivolumab
- overall survival rate of HNSCC patients (HNSCC; 16% in standard therapy group): 36%
- grade 3 or grade 4 events versus standard therapy (HNSCC; human, in vivo): fewer grade 3 or grade 4 events
- response rate of HNSCC patients (HNSCC; human, in vivo): 13%
- survival longer than standard therapy group (HNSCC; human, in vivo): 2.4 months

Substance: pembrolizumab
- objective response rate (complete or partial response of tumour size reduction) [3]: 16%
